Assay results published in patent publication EP4740942A1, “AROMATIC AMIDE DERIVATIVE AND USE THEREOF” (HUAJIAN FUTURE (CHENGDU) TECHNOLOGY CO., LTD., priority 2023, dated 2025).

How the values were obtained:
lung cancer cells A427 = assay: 3D model proliferation inhibitory activity test against lung cancer cells A427 (CellTiter-3D-Glo); format: cell-based; conditions: Homo sapiens, A-427, low-adhesion 96-well U-bottom plate
Protocol: (§1) Cell proliferation activity was detected by a CellTiter-3D-Glo reagent method. A specific method was as follows: A427 cells in logarithmic growth period were digested, diluted to a suitable cell density with MEM complete medium containing 10% FBS and 1% PS, inoculated into a low-adhesion 96-well U-bottom plate, and cultured in 5% CO2; and then a series of to-be-tested compounds with concentration gradient was added, and incubated in a 5% CO2 incubator. After finishing the incubation, the cells were lysed and detected by using the CellTiter-3D-Glo reagent. Chemiluminescence values were measured by a microplate reader, and data were fitted by Graphpad Prism software, so as to calculate IC50 values of tested substances.

[1] = test system: colorectal cancer cells SW480; assay: Pharmacodynamic experiment of subcutaneous xenograft tumor model of colorectal cancer cells SW480; format: in vivo, BALB/c nude mice; conditions: 0.2 mg/kg, QD × 18 days, oral gavage
Protocol: Animal species and number: BALB/c nude mice, 6 mice in each group.
Experimental samples: compound 4-1 and compound Ref A-1.
Experimental groups: blank solvent control group, compound 4-1 (0.2 mg/kg, QD × 18 days) and compound Ref A-1 (0.2 mg/kg, QD × 18 days).
Establishment of animal model: SW480 tumor cells in logarithmic growth period were cultured and collected in vitro, and inoculated subcutaneously in right backs of the Balb/c Nude mice, and when tumors grew to about 180-250 mm^3, the tumor-bearing mice were randomly divided into groups. Subsequently, each group of animals were administered with drugs, and the first day of drug administration was defined as the 1st day of the experiment.
Drug administration route and frequency: oral gavage, once per day, for 18 consecutive days.
General state observation: the mice were observed once per day, and observation contents included, but were not limited to, locally administered parts, physical signs, general behaviors, mental states, death and other situations, and other abnormal manifestations of the animals.
Tumor volume calculation: V = 0.5 a × b^2, wherein a was a long diameter of tumor and b was a short diameter of tumor. Tumor growth inhibition rates TGI (%) were used to evaluate anti-tumor effects of the compounds. […]

[2] = In-vivo pharmacokinetic study in SD rats; conditions: 0.2 mg/kg
Protocol: Pharmacokinetic study on compound 4-1 in SD rats was conducted. 12 SD rats (half male and half female) were selected and randomly divided into 2 groups (3 rats/sex/group) according to their body weights, and the groups were recorded as a group 1 and a group 2, which were administered with 0.2 mg/kg compound 4-1 by intravenous and oral gavage route respectively. All the experimental animals were administered with a single dose on Day 0, and a drug administration moment was recorded as 0 hour. About 0.25 mL of whole blood (EDTA-K2) was respectively collected from all the experimental animals in group 1 before the drug administration, at 5 minutes, 15 minutes, 30 minutes, 1 hour, 2 hours, 4 hours, 6 hours, 8 hours and 24 hours after finishing the drug administration to prepare plasma; and about 0.25 mL of whole blood (EDTA-K2) was respectively collected from all the experimental animals in group 2 before the drug administration, at 15 minutes, 30 minutes, 1 hour, 2 hours, 4 hours, 6 hours, 8 hours and 24 hours after finishing the drug administration to prepare plasma. The compounds in the plasma samples were quantitatively determined by a LC-MS/MS method, and pharmacokinetic parameters were analyzed and calculated by non-compartmental analysis.

[3] = test system: pancreatic cancer cells MIA PaCa-2; assay: Pharmacodynamic experiment of subcutaneous xenograft tumor model of pancreatic cancer cells MIA PaCa-2; format: in vivo, BALB/c nude mice; conditions: 0.2 mg/kg, QD × 15 days, oral gavage; for diets, weights and activities of the animals during the drug administration / Tumor inhibition rate: BALB/c nude mice; for Tumor inhibition rate: MIA PaCa-2 subcutaneous xenograft; for inhibitory effects on the growth of subcutaneously transplanted tumors of pancreatic cancer MIA PaCa-2 cells in the nude mice: result in words
[4] = test system: colorectal cancer cells HCT116; assay: Proliferation inhibitory activity test against colorectal cancer cells HCT116 (CellTiter-3D-Glo); format: cell-based; conditions: Homo sapiens, HCT-116, low-adhesion 96-well U-bottom plate
Protocol: Cell proliferation activity was detected by a CellTiter-3D-Glo reagent method. A testing process was as follows: HCT116 cells in logarithmic growth period were digested, diluted to a suitable cell density with McCoy's 5A complete medium containing 10% FBS and 1% PS, inoculated into a low-adhesion 96-well U-bottom plate, and cultured in 5% CO2; and then a series of to-be-tested compounds with concentration gradient was added, and the system was incubated in a 5% CO2 incubator. After finishing the incubation, the cells were lysed and detected by using the CellTiter-3D-Glo reagent. Chemiluminescence values were measured by a microplate reader, and data were fitted by Graphpad Prism software, so as to calculate IC50 values of tested substances. Test results can be seen in the following table: wherein, "A" represents inhibitory activity IC50 < 20 nM, "B" represents inhibitory activity 20 nM ≤ IC50 < 50 nM, and "C" represents inhibitory activity IC50 ≥ 50 nM.

[5] = test system: colorectal cancer cells SW480; assay: 3D model proliferation inhibitory activity test against colorectal cancer cells SW480 (CellTiter-3D-Glo); format: cell-based; conditions: Homo sapiens, low-adhesion 96-well U-bottom plate
Protocol: as §1, with “SW480” for “A427”, “DMEM” for “MEM”

Row | SMILES | IC50 (lung cancer cells A427) | IC50 [4] | IC50 [5] | other results
1 | C=CCNC(=O)c1cc(Cc2ccnc(NS(=O)(=O)NC)c2F)c(F)c(F)c1Nc1ccc(I)cc1F [Compound 4-1, N-allyl-3,4-difluoro-5-((3-fluoro-2-((N-methylaminosulfonyl)amino)pyridin-4-yl)methyl)-2-((2-fluoro-4-iodophenyl)amino)benzamide] | 1.16 nM | < 20 nM | 0.89 nM | Tumor inhibition rate ([1]; SW480 subcutaneous xenograft, BALB/c nude mice): ++++ (tumor inhibition rate > 100%); inhibitory effect on the growth of subcutaneously transplanted tumors of colorectal cancer SW480 cells in the nude mice ([1]; result in words): significant inhibitory effect; bioavailability ([2]; both sexes, rat, plasma, single dose, intravenous and oral gavage, read-out: absolute bioavailability (F%)): > 65%; absorption and clearance rates ([2]; result in words): greater; diets, weights and activities of the animals during the drug administration [3]: normal; Tumor inhibition rate [3]: +++ (tumor inhibition rate > 90%); inhibitory effects on the growth of subcutaneously transplanted tumors of pancreatic cancer MIA PaCa-2 cells in the nude mice [3]: significant inhibitory effects
2 | C=C[C@@H](C)NC(=O)c1cc(Cc2ccnc(NS(=O)(=O)NC)c2F)c(F)c(F)c1Nc1ccc(I)cc1F [Compound 4-5, (R)-N-(but-3-en-2-yl)-3,4-difluoro-5-((3-fluoro-2-((N-methylaminosulfonyl)amino)pyridin-4-yl)methyl)-2-((2-fluoro-4-iodophenyl)amino)benzamide] | 2.13 nM | < 20 nM |  | 
3 | [2H]C([2H])(C=C)NC(=O)c1cc(Cc2ccnc(NS(=O)(=O)NC)c2F)c(F)c(F)c1Nc1ccc(I)cc1F [Compound 4-7, N-(allyl-1,1-d2) -3,4-difluoro-5-((3-fluoro-2-((N-methylaminosulfonyl)amino)pyridin-4-yl)methyl)-2-((2-fluoro-4-iodophenyl)amino)benzamide] | 1.09 nM |  |  | 
4 | C=CCNC(=O)c1cc(Cc2ccnc(NS(=O)(=O)NCC)c2F)c(F)c(F)c1Nc1ccc(I)cc1F [Compound 4-8, N-allyl-5-((2-((N-ethylaminosulfonyl)amino)-3-fluoropyridin-4-yl)methyl)-3,4-difluoro-2-((2-fluor o-4-iodophenyl)amino)benzamide] | 2.88 nM | < 20 nM |  | 
5 | [2H]C([2H])([2H])NS(=O)(=O)Nc1nccc(Cc2cc(C(=O)NCC=C)c(Nc3ccc(I)cc3F)c(F)c2F)c1F [Compound 4-10, N-allyl-3,4-difluoro-5-((3-fluoro-2-((N-methyl-d3-aminosulfonyl)amino)pyridin-4-yl)methyl)-2-((2-fluoro-4-iodophenyl)amino)benzamide] | 0.89 nM | < 20 nM | 1.05 nM | 
6 | C=CCNC(=O)c1cc(Cc2ccnc(NS(=O)(=O)NC)c2F)c(F)c(F)c1Nc1ccc(C=C)cc1F [Compound 4-14, N-allyl-3,4-difluoro-5-((3-fluoro-2-((N-methylaminosulfonyl)amino)pyridin-4-yl)methyl)-2-((2-fluoro-4-vinylphenyl)amino)benzamide] |  | < 20 nM | 2.67 nM | 
7 | C=CCONC(=O)c1cc(Cc2ccnc(NS(=O)(=O)NC)c2F)c(F)c(F)c1Nc1ccc(I)cc1F [Compound 5-1, N-(allyloxy)-3,4-difluoro-5-((3-fluoro-2-((N-methylaminosulfonyl)amino)pyridin-4-yl)methyl)-2-((2-fluoro-4-iodophenyl)amino)benzamide] | 0.53 nM |  | 0.17 nM | diets, weights and activities of the animals during the drug administration [3]: normal; Tumor inhibition rate [3]: +++ (tumor inhibition rate > 90%); inhibitory effects on the growth of subcutaneously transplanted tumors of pancreatic cancer MIA PaCa-2 cells in the nude mice [3]: significant inhibitory effects
8 | C=CCCONC(=O)c1cc(Cc2ccnc(NS(=O)(=O)NC)c2F)c(F)c(F)c1Nc1ccc(I)cc1F [Compound 5-2, N-(but-3-en-1-yloxy)-3,4-difluoro-5-((3-fluoro-2-((N-methylaminosulfonyl)amino)pyridin-4-yl)methyl)-2-((2-fluoro-4-iodophenyl)amino)benzamide] |  |  | 0.63 nM | 
